The text below walks through data of patent US20110293643A1, “COMPOUNDS AND METHODS FOR INHIBITING MMP2 AND MMP9” (priority 2009, published 2011).

Series [1] deals with Wistar-Kyoto rat. Conditions: rat ischemia reperfusion injury, Iwata et al. 2008; cited from earlier work.
Series [2] relates to CD4+ T cells. In words: anti-CD3 induced T cell proliferation (3H thymidine incorporation), CD4+ T cells. Format: cell-based, mouse. The protocol: (§1) The non-specific MMP inhibitor, 1,10-phenanthroline (Sigma, St. Louis, Mo.) was reconstituted to 1 M solution in dimethyl sulfoxide (DMSO) and diluted to 0.001-0.1 μM in complete RPMI (cRPMI), composed of RPMI, […] L-glutamine, 100 U penicillin streptomycin (Gibco, Carlsbad, Calif.), 10% FCS (Hyclone, Logan, Utah), and 5×10^−5 M 2-mercaptoethanol (Sigma, St. Louis, Mo.).
(§2) CD4^+ or CD8^+ T cells were isolated from wild-type Balb/c or C57BL/6 mice (1×10^6/ml) and incubated with the indicated concentrations of MMPIs or vehicle control for 6 hours. The treated cells were then washed three times in RPMI and cultured (1×10^5/well) in a 96 well plate in 200 μl of cRPMI in the presence of anti-CD3 antibody (0.5-1 μg/ml, BD Biosciences, San Jose, Calif.) at 37° C. for 72 hours and harvested as previously reported (Sumpter et al., 2008). This generalized protocol was used to measure T cell proliferation of CD4^+ and CD8^+ T cells following the various isolation methods and treatment conditions indicated. In MMP deficient parallel studies, MMP2−/−, MMP9−/−, MMP2/9−/− mice and littermate controls were cultured in the presence of anti-CD3 antibody for 72 h. […] The cells were washed three times in RPMI and added at varying ratios (treated: untreated) in co-culture with untreated CD4^+25− T cells in the presence of γ-irradiated antigen presenting cells in 200 μl of cRPMI at 37° C. for 72 hours and harvested as previously reported (Sumpter et al., 2008).
(In general: Uptake of a labelled nucleoside into DNA is a usual measure of proliferation.)

Series [3] relates to rat. Conditions: rat lung transplantation; cited from earlier work.
The subject of series [4] is T cells. In words: cell viability after 1,10-phenanthroline treatment. It counts as cell-based, mouse. Conditions: high phenanthroline concentrations.
Series [5] concerns CC10-OVA mice. In words: antigen-specific CD8+ T cell mediated lung injury, adoptive transfer of treated OT-I cells into CC10-OVA mice. It counts as in vivo, mouse. Here is the method:
Lymph node and spleen were isolated from Thy1.1^+ OT-I transgenic mice and splenic CD8^+ T cells were isolated as stated above. […] 5×10^7 γ-irradiated wild-type splenocytes were cultured in 30 ml of 10% DMEM supplemented with 0.7 μg/ml of OVA peptide ([…]) for 5 min, followed by the addition of OT-1 Thy1.1^+ CD8^+ T cells (5×10^6), anti-CD28 antibody (2 μg/ml), IL-2 (132.02 U/ml) and IL-12 (10 ng/ml). On day 3, the cells were split and supplemented with more IL-2 (25 U/ml) in a final volume of 30 ml. On day 5, cells were harvested and prepared for adoptive transfer into CC10-OVA mice. Cells were resuspended in PBS, and 7.5×10^5 cells were intratracheally instilled into the lungs of CC10-OVA mice.
The lung was finely minced on ice, followed by a 60-90 minute digestion at 37° C. with collagenase/dispase (0.2 mg/ml of each) in RPMI medium with 5% fetal calf serum (FCS), in the presence of 25 μg/ml DNase. Cells were passed through a 70 μm cell strainer, washed, and lung lymphocytes were isolated by density centrifugation. Cells were resuspended in FACS buffer (10% BSA in PBS) and analyzed immediately on a FACScan flow cytometer (Beckton Dickinson). FCS Express (DeNovo Software, Los Angeles, Calif.) was used for further analysis.
BAL was collected from the lungs of wild-types and CC10 mice following adoptive transfer of vehicle and SB-3CT-treated OT-1 Tg T cells, by washing the mouse lung with 1.0 ml of sterile 1×PBS. Collected fluid was then centrifuged for 10 minutes at 2000 rpm. Cell pellets were resuspended in 200 μl of sterile 1×PBS. Cells were then stained with anti-GR1 antibody and analyzed immediately on a FACScan flow cytometer (Beckton Dickinson). FCS Express (DeNovo Software, Los Angeles, Calif.) was used for further analysis.
Lungs were perfused, inflated and fixed with neutral buffered formalin. The sections were then embedded in paraffin, sectioned, and stained with hematoxylin and eosin. Images were acquired at 20× using an Olympus microscope and DP12 digital camera (Olympus, Center Valley, Pa.).

For series [6], the system named is CD8+ T cells. In words: anti-CD3 induced intracellular calcium flux (Fluo-4 NW). Conditions: 10 μM. Format: cell-based, mouse. Here is the method:
Calcium flux was measured in CD4^+ and CD8^+ wild-type or MMP9 deficient or SB-3CT-treated (10 μM) T cells using the Fluo-4 NW Calcium Assay kit (Molecular Probes, Carlsbad, Calif.) in accord with the manufacturer's protocol. Cells were then stimulated with anti-CD3 antibody (10 μg/ml) and read in real time on a Molecular Devices FlexStation I (Sunnyvale, Calif.) for 300 seconds.
For orientation: Calcium flux is commonly read through the fluorescence of an indicator in the cells.

In series [7] the target is MMP9 (Homo sapiens, UniProt P14780). Conditions: Brown et al., 2000, Toth et al., Forbes et al., 2009; cited from earlier work.
In series [8] the test system is CD4+25− T cells. In words: T cell suppressor assay with SB-3CT-treated CD4+25− T cells. It counts as cell-based, mouse. Here is the method: as §2
In series [9] the target is T1, MMP9 (Mus musculus, UniProt P41245).
T1 construct: Cell lysates and conditioned media supernatant were collected, concentrated to 4× and centrifuged; endogenous in cells; host or cells: primary splenic CD8+ T cells from wild-type C57BL/6 mice
In words: MMP9 protein expression by gelatin zymography in CD8+ T cells. Conditions: 10 μM. Format: cell-based. Here is the method: Cell lysates and conditioned media supernatant were collected, concentrated to 4× and centrifuged to remove any cell debris, and stored at −80° C. prior to assay. Samples were then subjected to zymography as reported previously (Yoshida et al., 2007).

The subject of series [10] is CD4+25+ T cells (Tregs). In words: T cell suppressor assay with SB-3CT-treated CD4+25+ T cells (Tregs). Conditions: 10 μM treated CD4+25+ T cells, varying ratios (FIG. 7E). It counts as cell-based, mouse. The protocol:
as §2

In series [11] the test system is Foxp3. In words: Foxp3 transcript expression by quantitative RT PCR in CD4+ T cells. Format: cell-based, mouse. Conditions: 10 μM, anti-CD3, CD4+ T cells (FIG. 7B). The protocol:
(§3) Purified CD4^+ T cells were incubated with the indicated concentrations of SB3-CT for 6 hours and then washed three times with RPMI 1640. Drug or vehicle-treated T cells were cultured (1×10^6/ml) with anti-CD3 antibody (0.5 μg/ml) in cRPMI for 1-12 hours. Cells were collected and total RNA was isolated using an RNeasy RNA extraction kit (Qiagen, Inc., Valencia, Calif.) and mRNA expression levels were detected with PerfeCTa™ SYBR Green FastMix, Low ROX (Quanta Biosciences, Gaithersburg, Md.) on a Applied Biosystems 7500 according to the manufacturer's instructions. Each sample was normalized to murine β-actin. Primer sequences were designed and optimized using routine methodologies to specifically amplify each cytokine based on publicly available sequences.

The subject of series [12] is T cells. In words: cell viability by trypan blue exclusion and annexin V staining after SB-3CT. Format: cell-based, mouse. Conditions: following treatment with SB-3CT. From the text:
The data described in the Examples herein thus far raise the possibility that SB-3CT-induced cytotoxicity or anergy could account for the observed effects on proliferation.

For series [13], the system named is CD25. In words: CD25 transcript expression by quantitative RT PCR in CD4+ T cells. It counts as cell-based, mouse. Conditions: 5-20 μM, anti-CD3, vs vehicle (FIG. 5D). The protocol:
as §3

The test system of series [14] is OT-I transgenic CD8+ T cells. In words: antigen-specific proliferation of OT-I transgenic CD8+ T cells with OVA-pulsed APCs. Format: cell-based, mouse. Conditions: 5-20 μM, SIINFEKL-pulsed APCs, 72 hours (FIG. 8A).
Series [15] concerns NFATc1. In words: NFATc1 transcript expression by quantitative RT PCR in CD4+ T cells. Format: cell-based, mouse. Conditions: 5-20 μM, anti-CD3, vs vehicle (FIG. 5C). The protocol:
as §3

Series [16] concerns CD8+ T cells. In words: anti-CD3 induced T cell proliferation (3H thymidine incorporation), CD8+ T cells. It counts as cell-based, mouse. The protocol: as §1
CD4^+ or CD8^+ T cells were isolated from wild-type Balb/c or C57BL/6 mice (1×10^6/ml) and incubated with the indicated concentrations of MMPIs or vehicle control for 6 hours. The treated cells were then washed three times in RPMI and cultured (1×10^5/well) in a 96 well plate in 200 μl of cRPMI in the presence of anti-CD3 antibody (0.5-1 μg/ml, BD Biosciences, San Jose, Calif.) at 37° C. for 72 hours and harvested as previously reported (Sumpter et al., 2008). This generalized protocol was used to measure T cell proliferation of CD4^+ and CD8^+ T cells following the various isolation methods and treatment conditions indicated. In MMP deficient parallel studies, MMP2−/−, MMP9−/−, MMP2/9−/− mice and littermate controls were cultured in the presence of anti-CD3 antibody for 72 h. […]

Series [17] concerns IL-2. In words: IL-2 protein expression by cytometric bead array. It counts as cell-based, mouse. Conditions: 10 μM, various time points, anti-CD3, CD4+ T cells (FIG. 6C, D). Here is the method:
Purified MMP9 deficient or SB-3CT-treated (10 μM) CD4^+ T cells were incubated for 6 hours and then washed three times with RPMI 1640. MMP9 deficient or SB-3CT-treated T cells were cultured (1×10^6/ml) with anti-CD3 antibody (0.5 μg/ml) in cRPMI for 1-12 hours. Supernatants were collected and cytokine protein levels were measured using the Mouse Inflammatory Cytokine Bead Array Kit (BD Biosciences, San Jose, Calif.) according to the manufacturer's instructions.

For series [18], the system named is IL-2. In words: IL-2 transcript expression by quantitative RT PCR. It counts as cell-based, mouse. Conditions: 10 μM, various time points, anti-CD3, CD4+ T cells (FIG. 6C, D). Here is the method: as §3

T1 sequence (P41245 108-730): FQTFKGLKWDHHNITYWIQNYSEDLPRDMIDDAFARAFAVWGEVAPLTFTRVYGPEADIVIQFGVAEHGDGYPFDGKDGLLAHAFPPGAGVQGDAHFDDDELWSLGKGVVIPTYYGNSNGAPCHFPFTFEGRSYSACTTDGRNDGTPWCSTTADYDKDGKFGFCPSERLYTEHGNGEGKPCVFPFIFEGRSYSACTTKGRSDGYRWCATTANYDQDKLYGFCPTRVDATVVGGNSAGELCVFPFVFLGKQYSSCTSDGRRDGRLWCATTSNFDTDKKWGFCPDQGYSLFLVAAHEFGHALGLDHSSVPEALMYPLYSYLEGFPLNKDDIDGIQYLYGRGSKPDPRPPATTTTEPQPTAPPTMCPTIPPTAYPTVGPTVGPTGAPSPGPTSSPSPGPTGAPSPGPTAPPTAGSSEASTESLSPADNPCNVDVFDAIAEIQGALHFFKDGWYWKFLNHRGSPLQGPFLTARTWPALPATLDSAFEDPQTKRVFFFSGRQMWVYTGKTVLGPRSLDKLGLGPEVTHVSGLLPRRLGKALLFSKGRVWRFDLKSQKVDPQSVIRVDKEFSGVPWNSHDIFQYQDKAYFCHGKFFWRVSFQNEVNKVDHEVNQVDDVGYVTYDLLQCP
Sequence of MMP9 (Homo sapiens, UniProt P14780) (P14780 94-707): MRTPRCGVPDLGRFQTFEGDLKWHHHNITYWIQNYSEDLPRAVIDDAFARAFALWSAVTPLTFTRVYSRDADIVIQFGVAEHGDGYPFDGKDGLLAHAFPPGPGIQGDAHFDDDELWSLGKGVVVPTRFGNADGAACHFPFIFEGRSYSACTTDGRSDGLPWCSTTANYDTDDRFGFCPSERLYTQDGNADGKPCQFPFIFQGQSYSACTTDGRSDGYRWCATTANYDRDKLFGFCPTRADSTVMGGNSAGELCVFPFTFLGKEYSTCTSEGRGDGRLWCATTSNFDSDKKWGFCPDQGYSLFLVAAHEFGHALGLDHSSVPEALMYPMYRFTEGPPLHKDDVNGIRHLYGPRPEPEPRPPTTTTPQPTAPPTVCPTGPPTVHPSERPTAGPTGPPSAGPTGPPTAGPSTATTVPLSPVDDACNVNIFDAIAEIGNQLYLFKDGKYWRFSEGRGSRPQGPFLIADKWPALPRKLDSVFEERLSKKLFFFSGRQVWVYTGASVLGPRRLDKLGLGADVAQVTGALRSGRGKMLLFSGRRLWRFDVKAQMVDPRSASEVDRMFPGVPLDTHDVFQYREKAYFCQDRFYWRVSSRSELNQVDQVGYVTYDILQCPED

On to `NC(=O)C1=C(O)C[C@@H]2C[C@@H]3Cc4cccc(O)c4C(=O)C3=C(O)[C@]2(O)C1=O` [COL-3], for which the “antigenic collagen (V) in bronchoalveolar lavage” value in series [1] was “lower levels”. Besides, the inflammation factors result in [1] is “reduced inflammation factors”. Further, the T cell proliferation entry is given as “proliferative response similar to the untreated control” in [2] (1 μM, 6 hours, then anti-CD3 72 hours (FIG. 2B)) and “dose-dependent decrease in T cell proliferation” in series [2] (higher doses (up to 100 μM), p<0.001 (FIG. 2B)). Moreover, the “intragraft B cell hyperplasia” value in series [3] is on record as “induce intragraft B cell hyperplasia”.

Consider `c1cnc2c(c1)ccc1cccnc12` [1,10-phenanthroline], for which, in series [4], the “cell viability after treatment” value is on record as “cells were viable after treatment”. The T cell proliferation entry in series [2] (0.001 μM, 6 hours, then soluble anti-CD3 antibody 72 hours (FIG. 2A)) was “proliferative response similar to untreated anti-CD3 antibody stimulated cells”; in series [2] (higher doses (up to 0.1 μM), 6 hours, then anti-CD3 72 hours, p<0.001 (FIG. 2A)), “significantly abrogated the proliferative response”.

Consider “TIMP-1: tissue-inhibitor of metalloproteinases”, for which, in series [3], the “delayed type hypersensitivity responses to donor antigens and type V collagen” value is “differential effects”; the rejection pathology result is recorded as “neither affected the onset of rejection pathology”.

As to `O=S(=O)(CC1CS1)c1ccc(Oc2ccccc2)cc1` (stereo not drawn) [SB-3CT], the “lung histology, mononuclear cellular infiltration” value in series [5] (H&E lung sections after adoptive transfer of treated OT-1 cells) is recorded as “mononuclear cellular infiltration was minimal”. The “quantity of total BAL cells” value in [5] (seven days after adoptive transfer of 10 μM treated OT-I cells, vs vehicle (FIG. 8B)) is “no differences”. Moreover, in series [5] (seven days after adoptive transfer, vs vehicle, p<0.01 (FIG. 8C)), the “quantity of neutrophils (Gr-1+) in BAL” value is “decreased significantly”. For the same molecule, the “CD8+ Thy1.1+ (donor) cells in lung parenchyma” value in series [5] (vs vehicle, p<0.01 (FIG. 9A)) is recorded as “significantly fewer”. In addition, in series [5] (vs vehicle, p<0.01 (FIG. 9B)), the “CD25 expression on CD8+ Thy1.1+ T cells in lung” value was “fewer of these cells expressed the activation marker CD25”. Further, in series [6] (calcium containing media, anti-CD3 (FIG. 4D)), the “calcium influx in calcium containing media” value is “dramatic influx of exogenous calcium”. Besides, the “intracellular calcium flux (release from the ER)” value in series [6] (calcium-free media, anti-CD3 10 μg/ml (FIG. 4C)) is on record as “increased intracellular calcium flux”. For the same molecule, the “mode of MMP9 inhibition” value in series [7] is recorded as “tight-binding inhibition”. Besides, the inhibition at 10 µM in [8] (Mus musculus, T-cell, 10 μM treated CD4+25− cells, each ratio with untreated CD4+25− T cells, 72 hours (FIG. 7D), read-out: inhibition of T cell proliferation in co-culture) was found to be 50%. Besides, the “induction of regulatory T cell function” value in [8] (increasing ratio of SB-3CT-treated cells (FIG. 7D)) was “does not induce regulatory T cell function”. In series [9], the MMP9 protein expression result is “decreased”. Further, in series [10], the “suppressive function of treated Tregs” value is “retained their suppressive function”. Further, the foxp3 transcripts result in series [11] was “increased”. For the same molecule, in [12], the cell viability result is on record as “greater than 90%”. The CD25 transcript expression result in [13] is “abrogated NFATc1 and CD25 transcript expression in a dose-dependent manner”. Further, the T cell proliferation entry in [2] (5-25 μM, anti-CD3 72 h, vs vehicle-treated cells (FIG. 2C)) is “dose-dependent decrease in proliferation”; in series [16] (5-25 μM, anti-CD3 72 h, vs vehicle-treated cells (FIG. 2D)) it was “dose-dependent decrease in proliferation”. Further, the “T cell proliferation with exogenous IL-2” value in [2] (anti-CD3 plus exogenous murine IL-2, 72 h (FIG. 2E)) is “partial recovery of the proliferative response”; in series [16] (anti-CD3 plus exogenous murine IL-2, 72 h (FIG. 2F)) it was “partial recovery of the proliferative response”. In addition, in [14], the antigen-specific proliferation result was “completely abrogated the proliferative response”. Also, the NFATc1 transcript expression entry in [15] was “abrogated NFATc1 and CD25 transcript expression in a dose-dependent manner”. The IL-2 protein expression entry in [17] is “down regulated”. Moreover, the IL-2 transcript expression result in series [18] is reported as “increased over time”.
